From ChEMBL document CHEMBL1146711, “A facile synthesis of 1-ethoxy-4-cyano-5-ethoxycarbonyl-3H-azuleno[1,2-c]pyran-3-one, a selective 15-lipoxygenase inhibitor” (Bioorg Med Chem Lett, 2004)

Columns and labels:
[1] = target: Cyclooxygenase (Homo sapiens) (UniProt P35354+P23219); experiment: Inhibitory concentration against prostaglandin G/H synthase; No inhibition; type: protein assay
[2] = target: Protein kinase C (PKC) (Homo sapiens) (UniProt O94806+P41743+P17252+P05129+Q05655+P05771+Q05513+Q02156+P24723+Q15139+Q04759); experiment: Inhibition of protein kinase C (No inhibition); type: protein assay
[3] = target: Phospholipase A2, major isoenzyme (Sus scrofa) (UniProt P00592); experiment: Inhibitory concentration against phospholipase A2; No inhibition
[4] = target: T1, Polyunsaturated fatty acid 5-lipoxygenase (Homo sapiens) (UniProt P09917); experiment: Inhibitory concentration against 5-lipoxygenase was determined; No inhibition
T1 sequence (whole entry): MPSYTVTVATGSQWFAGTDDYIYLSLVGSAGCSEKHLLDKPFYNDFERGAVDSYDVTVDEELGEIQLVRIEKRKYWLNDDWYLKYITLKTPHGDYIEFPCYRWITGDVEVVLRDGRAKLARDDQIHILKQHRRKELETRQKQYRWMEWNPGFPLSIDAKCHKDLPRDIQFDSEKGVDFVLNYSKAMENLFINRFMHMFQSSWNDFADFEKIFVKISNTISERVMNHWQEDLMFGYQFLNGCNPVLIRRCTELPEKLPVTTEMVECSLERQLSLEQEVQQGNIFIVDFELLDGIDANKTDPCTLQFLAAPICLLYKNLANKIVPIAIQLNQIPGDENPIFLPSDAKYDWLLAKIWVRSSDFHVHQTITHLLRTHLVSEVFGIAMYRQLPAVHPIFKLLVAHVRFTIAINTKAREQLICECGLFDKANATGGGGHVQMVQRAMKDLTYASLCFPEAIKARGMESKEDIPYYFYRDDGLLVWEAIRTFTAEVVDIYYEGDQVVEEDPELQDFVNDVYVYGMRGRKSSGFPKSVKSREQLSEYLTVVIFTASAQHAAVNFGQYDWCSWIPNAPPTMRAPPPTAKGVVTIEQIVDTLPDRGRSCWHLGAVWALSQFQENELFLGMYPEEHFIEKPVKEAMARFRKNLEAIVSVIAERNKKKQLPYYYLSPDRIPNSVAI

[5] = Inhibitory concentration against lipid peroxidase was determined; No inhibition

Measured: Activity

Chain of Phospholipase A2, major isoenzyme (Sus scrofa) (P00592 23-146 limits assumed): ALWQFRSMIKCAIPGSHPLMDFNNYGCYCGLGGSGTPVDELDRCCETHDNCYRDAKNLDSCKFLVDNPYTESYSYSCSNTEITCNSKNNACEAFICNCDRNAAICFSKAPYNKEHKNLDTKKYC

O=C1CCN(c2ccccc2)N1
> 300 µM: [1] | [2] | [3]

CCOC(=O)c1c2cccccc-2c2c(OCC)oc(=O)c(C#N)c12
> 300 µM: all assays above
